SMILES strings stand for the structures. Structures can show the parent of a compound that is named as a salt.

Consider seven molecules from US12234227B2, “Pyrazole derivatives as H4 antagonist compounds” (NXERA PHARMA UK LIMITED, priority 2018, dated 2025).

Data set [1] deals with T1, hERG (Homo sapiens, UniProt Q12809). Briefly: hERG Assay (QPatch automated patch clamp; single-concentration assay at 30 μM and pIC50 assay). To be noted: for inhibition at 30 µM: human, CHO cells stably expressing hERG. In general terms: hERG is a cardiac potassium channel; its block is linked to QT prolongation.
For data set [2], the target named is T2, human H4 receptor (Homo sapiens, UniProt Q9H3N8).
T2 construct: expressed in transfected cells; host or cells: HEKf cells transduced with baculovirus
Description: H4 Antagonist Functional Dynamic Mass Redistribution Assay. In kind it is cell-based. The conditions noted are these: H4 antagonist activity; for Kb: read-out: Human H4 DMR fpKb (converted). As to the method: H4 Antagonist Functional Dynamic Mass Redistribution Assay
HEKf cells were infected using baculovirus expressing the human H4 receptor, plated into fibronectin-coated EPIC plates at a density of 10,000 cells/well and incubated overnight at 37° C. The medium on cells was changed to 30 μL HBSS with 20 mM HEPES per well and 30 nL DMSO were added per well by LabCyte ECHO acoustic dispensing. Following 2 h equilibration at room temperature, 30 nL of H4 ligands prepared in DMSO were stamped by LabCyte ECHO acoustic dispensing into seeded EPIC plates and cellular dynamic mass redistribution was monitored using a Corning EPIC plate reader. Following 45 min measurement, 30 nL/well of histamine EC80 was added and monitored to obtain antagonist assay data. Maximum baseline-corrected responses in […] were used to generate concentration response curves. EC50 values were generated using a 4-parameter logistical fit equation to quantify agonist potencies. Functional antagonist affinity values were generated using the Cheng-Prusoff equation to calculate a pKb value using the antagonist assay data.

For data set [3], the target named is T2, human H4 receptor. Description: H4 Antagonist Functional cAMP Gi Assay. In kind it is cell-based. To be noted: H4 antagonist activity; for Kb: read-out: Human H4 CAMP fpKb (converted). As to the method: H4 Antagonist Functional cAMP Gi Assay
HEKf cells were infected overnight using baculovirus expressing the human H4 receptor, then centrifuged at 1,200 rpm for 5 min, frozen in cell freezing medium (Sigma) and stored at −150° C. On the day of assay, the cells were thawed and resuspended in HBSS with 500 nM IBMX to achieve a density of 1,500 cells/well. H4 ligands were prepared in DMSO and stamped by LabCyte ECHO acoustic dispensing at 25 nL in low volume plates. 10 μL/well cells were plated in the presence of 1 μM forskolin, subjected to centrifugation at 1,200 rpm for 1 min and incubated for 30 min prior to addition of Cisbio cAMP detection reagents to a total volume 20 μL/well. For the antagonist assay, cells were pre-incubated with H4 antagonist ligands for 30 min prior to addition of EC80 concentration of histamine and a further 30 min incubation. Following detection reagent addition and shaking at room temperature for 60 min, cAMP accumulation was measured using HTRF on a PheraStar plate reader. EC50 values were generated using a 4-parameter logistical fit equation to quantify agonist potencies. Functional antagonist affinity values were generated using the Cheng-Prusoff equation to calculate a pKb value using the antagonist assay data.

Data set [4] addresses T1, hERG. Briefly: in vitro.

T2 sequence (Q9H3N8 whole entry): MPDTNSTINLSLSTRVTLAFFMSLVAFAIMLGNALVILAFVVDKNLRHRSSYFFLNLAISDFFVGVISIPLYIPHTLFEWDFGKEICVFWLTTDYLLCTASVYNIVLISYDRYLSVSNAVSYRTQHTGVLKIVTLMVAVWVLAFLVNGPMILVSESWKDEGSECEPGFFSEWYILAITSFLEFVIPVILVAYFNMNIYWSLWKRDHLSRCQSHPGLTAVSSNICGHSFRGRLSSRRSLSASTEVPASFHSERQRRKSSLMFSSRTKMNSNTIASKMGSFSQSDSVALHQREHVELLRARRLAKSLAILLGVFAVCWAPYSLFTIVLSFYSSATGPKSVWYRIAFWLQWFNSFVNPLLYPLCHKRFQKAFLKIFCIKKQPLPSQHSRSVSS
T1 sequence (Q12809 whole entry): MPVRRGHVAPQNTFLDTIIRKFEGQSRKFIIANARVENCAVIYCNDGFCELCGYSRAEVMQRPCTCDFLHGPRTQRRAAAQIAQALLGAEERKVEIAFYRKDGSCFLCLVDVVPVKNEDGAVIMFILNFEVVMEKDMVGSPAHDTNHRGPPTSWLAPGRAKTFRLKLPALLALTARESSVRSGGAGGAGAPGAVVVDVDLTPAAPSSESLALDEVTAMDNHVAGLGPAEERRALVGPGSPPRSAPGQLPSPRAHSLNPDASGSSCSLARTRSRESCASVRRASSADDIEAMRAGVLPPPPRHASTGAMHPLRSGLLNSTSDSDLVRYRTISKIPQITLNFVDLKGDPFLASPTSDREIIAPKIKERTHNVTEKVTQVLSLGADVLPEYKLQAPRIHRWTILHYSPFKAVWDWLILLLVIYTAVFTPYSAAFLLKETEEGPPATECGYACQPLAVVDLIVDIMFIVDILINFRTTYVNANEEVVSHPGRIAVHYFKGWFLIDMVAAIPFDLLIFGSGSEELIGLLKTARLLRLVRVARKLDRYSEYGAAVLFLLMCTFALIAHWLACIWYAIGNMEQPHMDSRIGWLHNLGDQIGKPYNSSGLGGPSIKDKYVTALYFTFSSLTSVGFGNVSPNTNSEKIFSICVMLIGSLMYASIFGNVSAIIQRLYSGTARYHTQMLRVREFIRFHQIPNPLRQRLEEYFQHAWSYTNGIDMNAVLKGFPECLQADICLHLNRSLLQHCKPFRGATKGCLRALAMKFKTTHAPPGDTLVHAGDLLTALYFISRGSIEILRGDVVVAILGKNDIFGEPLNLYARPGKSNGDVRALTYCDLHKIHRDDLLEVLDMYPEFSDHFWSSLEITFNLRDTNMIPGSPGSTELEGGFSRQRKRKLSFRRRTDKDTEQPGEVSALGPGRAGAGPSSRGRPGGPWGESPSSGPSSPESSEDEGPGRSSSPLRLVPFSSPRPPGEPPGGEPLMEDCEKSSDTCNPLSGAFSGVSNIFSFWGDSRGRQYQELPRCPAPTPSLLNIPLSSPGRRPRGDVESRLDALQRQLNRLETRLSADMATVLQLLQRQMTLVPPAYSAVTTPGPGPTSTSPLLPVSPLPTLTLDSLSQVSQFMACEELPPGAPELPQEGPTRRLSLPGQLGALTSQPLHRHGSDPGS

For `CN[C@@H]1CCN(c2cc(-c3cn(C(F)F)nc3C)nc(N)n2)C1` [Example 11-6], the inhibition (in general, the change of the read-out against control, counted positive when it falls) at 30 µM at hERG [1] turned out to be 90%. Further, the Kb at human H4 receptor [2] is 3.98 nM; at human H4 receptor [3], 6.31 nM.

In the case of `CN[C@@H]1CCN(c2cc(-c3cnn(C)c3C)nc(N)n2)C1` [Example 12-1], at hERG [1], the IC50 (as a rule, the point on the concentration scale where inhibition reaches its midpoint) was not below 100000 nM. The Kb was 2.51 nM on human H4 receptor [2] and 7.94 nM at human H4 receptor [3].

At hERG [1], `CN[C@@H]1CCN(c2cc(-c3cnn(C(F)F)c3C)nc(N)n2)C1` [Example 12-3] registered an inhibition at 30 µM of 47%. In addition, the Kb was 6.31 nM on human H4 receptor [2] and 15.8 nM on human H4 receptor [3].

Regarding `CN[C@@H]1CCN(c2cc(-c3c(C)nn(C)c3C)nc(N)n2)C1` [Example 13-1], on hERG [1], at 30 µM the inhibition was 7%. Moreover, the Kb at human H4 receptor [2] is 5.01 nM; at human H4 receptor [3] it was 20 nM.

`CN[C@@H]1CCN(c2cc(-c3[nH]ncc3Br)nc(N)n2)C1` [Example 16-12]: at 30 µM the inhibition at hERG [1] was 45%. Besides, the values for the Kb at human H4 receptor [2] and at human H4 receptor [3] were 0.126 nM and 0.398 nM, respectively.

Consider `Cc1n[nH]c(-c2cc(N3C[C@H]4CCCN[C@H]4C3)nc(N)n2)c1Cl` [Example 17-7, dihydrochloride], for which testing at 30 µM on hERG [4] gave an inhibition of 38%. On human H4 receptor [2], the Kb was 31.6 nM.

Regarding `CC(C)c1cc(N2CC[C@@H](N)C2)nc(N)n1` [JNJ-39758979], on hERG [1] (QPatch, 1, 3, 10 and 30 μM), the “hERG pIC50” value is on record as not above 4.0. Besides, the “Human H4 DMR fpKb” value on human H4 receptor [2] worked out at 8.5. The “Human H4 CAMP fpKb” value on human H4 receptor [3] was found to be 8.1.
